Test results as given in patent publication US20070179147A1, “Methods of treating and preventing Alzheimer's disease” (priority 2006, published 2007).
Where “and” joins values, the source holds several entries; their conditions need not be identical. Equal entries are not always repeated. Entries after “also recorded” stand apart in the source; their conditions may differ. Where two headings read alike, the source gives them in different places.

Legend:
[1] = system: cortical neurons; assay: Extreme hypoxia/hypoglycemia (H/H) model, 0.4 mM glucose
Description: (§1) Experiments were performed in a 96-well plate format. Cortical neurons were seeded at a density of 50,000 cells/well on a poly-D-lysine coated surface, and cultured in serum-free medium (NB plus B27 supplement) to obtain cultures highly enriched for neurons. […] Six replicate wells were treated as a group to facilitate assay quantitation.
(§2) The extreme H/H model (0.4 mM glucose) is a mimic of the environment in the central core of an infarct; the mild H/H model (1.63 mM glucose) is a mimic of the environment in the penumbra during MCAO; and the hypoxia only model (neurons in normal in vitro glucose concentration—25 mM) is a mimic of the environment in the penumbra after reperfusion since the possible cell death after reperfusion is predominantly a result of the hypoxic effect rather then energy failure.
Hypoxia/hypoglycemia was obtained by reducing glucose concentration down to 0.4 mM and 1.63 mM for extreme H/H and mild H/H, respectively. […] The level of O2 in the chamber was determined to be zero with an O2 indicator (FYRITE Gas Analyzer, Bacharach, Inc.). […] Mitochondrial function and cell death were evaluated at 24 or 48 hours post H/H insult with the MTS and LDH analyses (see below).
The MTS assay is a colorimetric assay that measures the mitochondrial function in metabolically active cells. […] The absorbance at 490 nm was recorded using a Bio-Rad 96 well plate reader. […]

[2] = system: primary cortical neurons; assay: Protection of neurons from H2O2-induced oxidative stress (60-70 μM H2O2, MTS assay); format: cell-based, rat; conditions: 1-10 μM, 24 h pre-treatment, H2O2 60-70 μM
Description: Twice, half amount of medium was replaced with fresh neurobasal medium containing no antioxidants. […] Each assay was performed in triplicate. […] After 24 hours, the cultures were evaluated for viability and mitochondrial function using a standard MTS Assay (Promega). The manufacturer's protocols were followed. […] The plates were put back into the incubator at 37° C. with 5% CO2 for one hour, then 20 μl MTS reagent was added to each well and plates were incubated at 37° C. with 5% CO2 for an additional two hours. The absorbance at 490 nm for each well was recorded with the BioRad plate reader (Model 550). Wells containing media alone were used as blanks. Each data point is the average of three separate assay wells. […] Three-week-old primary cultures were used for this set of study. Experiments were carried out following the same procedures as experiment 1. Two-week-old primary cultures were used for this study.

[3] = Solubility of PAN-811 in solvents; conditions: PEG-300/EtOH vs EtOH
[4] = system: co-cultured cortical and striatal neurons; assay: Protection from Aβ1-42 or Aβ25-35 induced neurotoxicity (morphology, LDH, MTS)
Description: Experiments were performed in a 96-well plate format. Cortical neurons were seeded at a density of 50,000 cells/well on poly-D-lysine coated surface, and cultured in serum-free medium (NB plus B27 supplement containing AO or without AO) to obtain cultures high enriched for neurons. Neurons were cultured for over 14 d.i.v. to increase cell susceptibility to excitatory amino acids (Jiang et al., 2001, supra). Three to six replicate wells were treated as a group to facilitate assay quantitation.
Lyophilized Aβs were dissolved in de-ionized and distilled water to a final concentration of 400 μM, and aliquoted and stored at −20° C. Before use, an aliquot of Aβ was removed from freezer and incubated at 37° C. for 48 hours. Neurons were cultured in NB with B27 supplement containing AO or without AO under 5% CO2 and 95% ambient air, 37° C. At 2 or 3 weeks, the neurons were treated with pre-incubated Aβ and either non-incubated Aβ or Aβ35-25 served as experimental controls.
Treatment with 2μM PAN-811 or 1:12,500 PEG:EtOH (7:3 as vehicle control) was started by at most 3 hours following Aβ insult. The neurons remained in culture post-treatment for different time periods, from 1 to 16 days.
Neuronal cell death was morphologically evaluated.
The MTS assay is a colorimetric assay that measures the mitochondrial function in metabolically active cells. This measurement indirectly reflects cell viability. […] 10 μl of MTS reagent (Promega) are added to each well of the 96 well assay plates containing the samples in 50 μl of culture medium. The plate is then incubated in a humidified, 5% CO2 atmosphere at 37° C. for 1 hour until the color is fully developed. The absorbance at 490 nm was recorded using a Bio-Rad 96 well plate reader.
Lactate dehydrogenase (LDH) assay is based on the reduction of NAD by the action of LDH. The resulting reduced NAD (NADH) is utilized in the stoichiometric conversion of a tetrazolium dye. If cell-free aliquots of medium from cultures given different treatments are assayed, then the amount of LDH activity can be used as an indicator of relative cell death as well as a function of membrane integrity. A 35μl aliquot of culture medium from a well in a 96-well test plate is transferred into a well in unused plate and supplemented with 17.5 μl of equally mixed Substrate, Enzyme and Dye Solutions (Sigma). The preparation is incubated at room temperature for 30 minutes, and then measured spectrophotometrically at a wavelength of 490 nm.
Primary neurons were isolated from cortex and striatum of 17-day-old rat embryonic brain and seeded on 96-well plates at 50,000 cells/well in regular neurobasal medium (Neurobasal Medium supplemented with B27-AO) for 2-3 weeks.
Lyophilized Aβ1-42 and Aβ25-35 were dissolved in distilled, deionized water to a final concentration of 400 uM. Aliquots of the preparations were stored at −20° C. The day before the experiment, the peptides were shifted from −20° C. to 37° C. and incubated overnight at 37° C.
The neurons at 12-16 d.i.v. and 21-23 d.i.v. were insulted by adding 2.5 ul per well of either 400 uM Aβ1-42 or 400 uM Aβ25-35 (final concentration: 10 uM). Untreated and Aβ35-25-treated wells were taken as negative controls and 25 uM glutamate treated wells were set as the positive control. At the same time as or 2-3 hours after the initiation of Aβ insults, 1:5000 diluted PEG:EtOH (vehicle for PAN-811) as well as PAN-811 at concentrations of 0.25, 05., 1 and 2 μM were added to the Aβ insulted wells. The neurons were continuously incubated at 37° C., 5% CO2. Data were obtained from the readings of 3-6 replicate wells.

[5] = system: male Sprague-Dawley rats, middle cerebral artery occlusion
[6] = system: cortical neurons; conditions: for protection (Comments): 24 h pre-treatment, 6 h H/H, 24 h post, culture age 15 days, test range started from 5 μM
Description: as §1, §2
Hypoxia/hypoglycemia was obtained by reducing glucose concentration down to 0.4 mM and 1.63 mM for extreme H/H and mild H/H, respectively. BSS (116.0 mM NaCl, 5.4 mM KCl, 0.8 mM MgSO4.e7H20, 1.0 mM NaH2PO4, 1.8 mM CaCl2.2H2O, 26.2 mM NaHCO3, and 0.01 mM glycine) or BSS with 25 mM glucose were de-gassed for 5 minutes prior to use. Culture medium in the plates for hypoxia was replaced with BSS or BSS with glucose. Meanwhile, culture medium in the plates for normoxia was replaced with non de-gassed BSS or BSS with glucose. Cells were committed to hypoxic conditions by transferring the plates into a sealed container (Modular Incubator Chamber-101™, Billups-Rothenberg, Inc.), applying a vacuum for 20 minutes to remove oxygen or other gases from the culture medium, and then refilling the chamber with 5% CO2 and 95% N2 at a pressure of 30 psi for 1 minute. The level of O2 in the chamber was determined to be zero with an O2 indicator (FYRITE Gas Analyzer, Bacharach, Inc.). Culture plates were maintained in the chamber for 6 hours. As an experimental control, duplicate culture plates were maintained under normal culture condition (5% CO2 and 95% ambient air) for the same duration. After a 6-hour treatment, plates were removed from the chamber and the medium in both the hypoxic and normoxic cultures was replaced with a termination solution (DMEM supplemented with 1×sodium pyruvate, 10.0 mM HEPES, and 1×N2 supplement) containing 25 mM glucose and cultured in 5% CO2 and 95% ambient air conditions. […] MK801 was utilized as a positive control. Mitochondrial function and cell death were evaluated at 24 or 48 hours post H/H insult with the MTS and LDH analyses (see below).
The MTS assay is a colorimetric assay that measures the mitochondrial function in metabolically active cells. This measurement indirectly reflects cell viability. […] The absorbance at 490 nm was recorded using a Bio-Rad 96 well plate reader. […]

[7] = system: enriched neuronal cultures (cerebellar tissue); assay: In vitro models of excitotoxicity (H/H, glutamate, staurosporine, veratridine), MTT assay
Description: Enriched neuronal cultures were prepared from 15-day-old Sprague-Dawley rat embryos. Using aseptic techniques, the rat embryos were removed from the uterus and placed in sterile neuronal culture medium. Using a dissecting microscope, the brain tissue was removed from each embryo, with care taken to discard the meninges and blood vessels. The cerebellum was separated by gross dissection under the microscope, and only cerebellar tissue was used for the culture. Cells were dissociated by trituration of the tissue and were plated at a density of 5×10^5 cells/well onto 48-well culture plates precoated with poly(L-lysine). Cultures were maintained in a medium containing equal parts of Eagle's basal medium (without glutamine) and Ham's F-12k medium supplemented with 10% heat-inactivated horse serum, 10% fetal bovine serum, 600 μg/ml glucose, 100 μg/ml glutamine, 50 U/ml penicillin, and 50 μg/ml streptomycin. After 48 h, 10 μM cytosine arabinoside was added to inhibit non-neuronal cell division. Cells were used in experiments after 7 days in culture.
Four in vitro models of excitotoxicity were studied. Cells were either exposed to H/H conditions for 3 hrs or treated for 45 min with one of glutamate (100 μM), staurosporine (1 μM) or veratridine (10 μM). All cells were co-treated with or without PAN-811 (10 μM) in Locke's solution. At the conclusion of the respective excitotoxic exposures, the condition medium (original) was replaced. H/H was induced by incubating the cells in a humidified airtight chamber saturated with 95% nitrogen, 5% CO2 gas for 3 hrs in Locke's solution without added glucose.
Twenty-four hours after the excitotoxic insult, cell viability assessments were made. Cell damage was quantitatively assessed using a tetrazolium salt colorimetric assay with 3-(4,5-dimethylthiazol-2-yl)-2,5-diphenyltetrazolium (MTT; Sigma Chemical Co., St. Louis, Mo.). Briefly, the dye was added to each well (final concentration, 1.5 mg/ml), cells were incubated with MTT-acidified isopropanol (0.1 N HCl in isopropanol), and the absorbance intensity (540 nm) of each sample was measured in a 96-well plate reader. Values are expressed relative to vehicle-treated control cells that were maintained on each plate, and the percentage change in cell viability was calculated.

[8] = system: primary cortical neurons; assay: Neuroprotection against H2O2-induced oxidative stress (MTS assay), comparison with known neuroprotectants; format: cell-based, rat; conditions: 24 h pre-treatment, harsh H2O2 treatment (150 μM)
Description: Twice, half the amount of medium was replaced with fresh neurobasal medium containing no antioxidants. […] The other known neuroprotectants were dissolved in appropriate solvents and diluted to the final concentrations as indicated. […] Each assay was performed in triplicate. After 24 hours, the cultures were evaluated for viability and mitochondrial function using a standard MTS Assay (Promega). The manufacturer's protocols were followed. Experiments were carried out in accordance with the above study design. […] Ginkgo biloba was dissolved in dH2O at a concentration of 6 mg/ml, and further diluted in the neurobasal medium to final concentrations of 2.5 μ/ml, 5 μg/ml, 25 μg/ml, and 250 μg/ml. […] The plates were returned to the incubator at 37° C. with 5% CO2 for one hour. Subsequently, 20 μl MTS reagent was added to each well and the plates were incubated at 37° C. with 5% CO2 for an additional two hours. The absorbance at 490 nm for each well was recorded with the BioRad plate reader (Model 550). Wells containing medium alone were used as blanks. Each data point is the average of three separate assay wells. […] Two-week-old primary cultures were used for this set of study.

[9] = system: cortical neurons; conditions: for protection from neuronal cell death (morphology): 5 μM, hypoxia
Description: Experiments were performed in a 96-well plate format. Cortical neurons were seeded at a density of 50,000 cells/well on a poly-D-lysine coated surface, and cultured in serum-free medium (NB plus B27 supplement) to obtain cultures highly enriched for neurons. Neurons were cultured for over 14 d.i.v. to increase cell susceptibility to excitatory amino acids (Jiang et al., 2001). Six replicate wells were treated as a group to facilitate assay quantitation.
Treatment with drug was continued during and subsequent to a 24-hour period of hypoxia. Cellular morphology and function (MTS and LDH assays) were measured 24 or 48 hours subsequent to the hypoxic insult.
The MTS assay is a colorimetric assay that measures the mitochondrial function in metabolically active cells. This measurement indirectly reflects cell viability. […] 20 μl of MTS reagent (Promega) are added to each well of the 96 well assay plates containing the samples in 100 μl of culture medium. The plate is then incubated in a humidified, 5% CO2 atmosphere at 37° C. for 1-2 hours until the color is fully developed. The absorbance at 490 nm was recorded using a Bio-Rad 96 well plate reader.
The lactate dehydrogenase (LDH) assay is based on the reduction of NAD by the action of LDH. The resulting reduced NAD (NADH) is utilized in the stoichiometric conversion of a tetrazolium dye. If cell-free aliquots of medium from cultures given different treatments are assayed, then the amount of LDH activity can be used as an indicator of relative cell death as well as a function of membrane integrity. A 50 μl aliquot of culture medium from a well in tested 96-well plate is transferred into a well in unused plate and supplemented with 25 μl of equally-mixed Substrate, Enzyme and Dye Solutions (Sigma). The preparation is incubated at room temperature for 20-30 minutes, and then measured spectrophotometrically at wavelength of 490 nm.

[10] = system: enriched neuronal cultures (cerebellar tissue); assay: Neurotoxicity of PAN-811, 24 h treatment (MTT assay); conditions: highest concentration tested (100 μM)
Description: Enriched neuronal cultures were prepared from 15-day-old Sprague-Dawley rat embryos. Using aseptic techniques, the rat embryos were removed from the uterus and placed in sterile neuronal culture medium. Using a dissecting microscope, the brain tissue was removed from each embryo, with care taken to discard the meninges and blood vessels. The cerebellum was separated by gross dissection under the microscope, and only cerebellar tissue was used for the culture. Cells were dissociated by trituration of the tissue and were plated at a density of 5×10^5 cells/well onto 48-well culture plates precoated with poly(L-lysine). […]
Cells were treated with varying amounts of PAN-811 (0-100 μM) for 24 hrs. Cell viability was determined in the MTT assay.
Cell damage was quantitatively assessed using a tetrazolium salt colorimetric assay with 3-(4,5-dimethylthiazol-2-yl)-2,5-diphenyltetrazolium (MTT; Sigma Chemical Co., St. Louis, Mo.). Briefly, the dye was added to each well (final concentration, 1.5 mg/ml), cells were incubated with MTT-acidified isopropanol (0.1 N HCl in isopropanol), and the absorbance intensity (540 nm) of each sample was measured in a 96-well plate reader. Values are expressed relative to vehicle-treated control cells that were maintained on each plate, and the percentage change in cell viability was calculated.

[11] = system: primary cortical neurons; assay: ROS generation in neuronal cells (c-DCF fluorescence); format: cell-based, rat; conditions: 10 μM
Description: Twice, half the amount of medium was replaced with fresh neurobasal medium without antioxidants. […] Untreated cells loaded with the dye were used as controls to calculate the c-DCF fluorescence change. Each assay was performed in triplicate. The c-DCF fluorescence at 485/520 nm (Ex/Em) for each well was recorded with the BMG Polar Star plate reader. Wells containing cells without dye were used as blanks. Each data point is the average of three separate assay wells. Untreated cells loaded with the dye were used as a control to calculate the c-DCF fluorescence change. Two-week-old primary cultures were used for the study. CM-H2DCFDA is a cell-permeant indicator for reactive oxygen species (ROS), which is non-fluorescent until the acetate groups are removed by intracellular esterases and oxidation occurs within the cell. It has been widely employed to detect the generation of ROS in cells and animals. Here, it has been used as a tool to assess the effects of PAN-811 on ROS generation in neuronal cells following the procedures described in this example. […] Experiments were repeated four times in different batches of cells and similar results were obtained. See FIG. 2 for the representative experiment.

[12] = system: primary neurons from cortex and striatum; assay: Neurotoxicity of Aβ peptides (morphology, LDH, MTS); format: cell-based, rat; conditions: for increase in LDH of the culture medium: 10 uM peptide, 16 day post-insult, neurons 12-16 d.i.v., 0% AO
[13] = 2 μM, 100% +AO, 1 day post-insult
[14] = 10 uM, 1-6 days post-insult, older neurons (21-23 d.i.v.), 90% AO

NC(=S)N/N=C/c1ncccc1N [PAN-811, 3-aminopyridine-2-carboxaldehyde thiosemicarbazone]
extreme H/H-induced neuronal cell death ([1]; 100 μM): only partially blocked
protection from neuronal cell death ([1]; ≦50 μM, extreme H/H): did not protect neuronal cell death
neuroprotective capacity [2]: good neuroprotective capacity
solubility [3]: better solubility in PEG-300/EtOH comparing to EtOH alone
protection from Aβ25-35 induced neuronal cell death, 3-week old neurons ([4]; 2 μM post-treatment (2 or 3h later), 10 μM Aβ25-35, 90% AO): well protected; also recorded: fully block
MTS reading, 7-week-old mixed neurons [4, 13]: slight reduction in the MTS reading
morphology of neurons, 7-week-old mixed neurons [4, 13]: well preserved the morphology of neurons
protection from neuronal cell death (morphology monitoring) ([4]; 2μM, Aβ insult): efficient protection from neuronal cell death
neuronal and neurite morphologies, younger neurons ([4]; 2 μM, at the same time as or 3 hours after Aβ1-42 or Aβ25-35 insult, 12-16 days, 0% AO): well preserved neuronal and neurite morphologies
Aβ1-42 or Aβ25-35 induced neurotoxicity, younger neurons ([4]; 2 μM, neurons 12-16 d.i.v. (2-week old), 0% AO, 10 uM Aβ): fully block; also recorded: well protected
LDH reading, younger neurons ([4]; 2 μM, same time or 2-3 hours post Aβ1-42 or Aβ25-35, day 16, 0% AO): down to a level lower than untreated (control) group
neuronal and neurite morphologies, older neurons ([4]; 0.25-2 uM, same time as or 2-3 hour after Aβ insult, 90% AO, 1-6 days): well preserved neuronal and neurite morphologies
MTS reading, older neurons ([4]; 0.25 to 1 μM, 3 hours after initiation of Aβ25-35 insult, 90% AO): up to control level
Aβ1-42 and Aβ25-35 induced neurotoxicity, older neurons ([4]; 0.25 to 2 μM, neurons 21-23 d.i.v., 90% AO): fully blocked
lowest dose giving full protection ([4]; administered 3 hours after initiation of Aβ25-35 insult): 0.25 µM
Infarct volume, range ([5]; 1 mg/kg IV 10 minutes prior to MCAO): 42.36-387.08 mm^3
Infarct Volume (individual rat) ([5]; 1 mg/kg IV 10 minutes prior to MCAO, 24 hours after surgery): 42.36 mm^3 and 126.42 mm^3 and 143.74 mm^3 and 158.83 mm^3 and 196.18 mm^3 and 200.08 mm^3 and 218.54 mm^3 and 221.46 mm^3 and 224.32 mm^3 and 255.36 mm^3 and 267.40 mm^3 and 344.47 mm^3 and 375.59 mm^3 and 387.08 mm^3
Infarct Volume, mean ([5]; 1 mg/kg IV 10 minutes prior to MCAO, 24 hours after surgery, n 14): 225.85 mm^3
rats that died ([5]; of the 7 rats that died (4 severe strokes, 3 with SAH), 6 were vehicle rats): 1
tolerability ([5]; rat, in vivo): well tolerated and relatively non-toxic
protection from mild H/H induced neurotoxicity ([6]; 2 μM): completely protected
protection from H/H-induced mitochondria dysfunction and neuronal cell death ([6]; 5 μM, 24 h before and during 6-h H/H, MTS and LDH 17 h post insult): completely protected
protection (Comments) ([6]; 5 μM): 5 μM: 100% protected
protection (Comments) ([6]; 10 μM): 10 μM: 100% protected
protection from damage by 3-hour hypoxia/hypoglycemia ([7]; 10 μM PAN-811): 92%
protection from 1 μM staurosporine ([7]; 10 μM PAN-811, 45 min insult): ~47%
protection from 10 μM veratridine ([7]; 10 μM PAN-811, 45 min insult): ~39%
protection from 100 μM glutamate ([7]; 10 μM PAN-811, 45 min insult): ~75%
neuroprotective capacity ([8]; PAN-811 1-10 μM): good neuroprotective capacity; also recorded: significant neuroprotection
protection from neuronal cell death (morphology) [9]: efficient protection from neuronal cell death
neuronal cell death after hypoxia ([9]; 21 μM, 48 h prior, during 24-h hypoxia and 48 h after): completely blocked the cell death
maximal toxicity [10]: 7.8%
reduction of basal level of ROS generation [11]: ~50%
reduction of H2O2-induced ROS generation ([11]; 1 h, then 300 μM H2O2 for 2 h): ~30%

Aβ1-42: amyloid beta peptide (Aβ1-42) from Sigma, used as neurotoxic insult
increase in LDH of the culture medium [12]: ~40%

Aβ25-35: amyloid beta peptide fragment from Oncogene or Bachem, used as neurotoxic insult (GSNKGAIIGLM; Amyloid-beta protein 42; UniProt P05067 696-706, looked up, fragment)
increase in LDH of the culture medium [12]: ~40%
decrease in MTS reading [12, 14]: 7.5%
increase in medium LDH reading [12, 14]: 12-18%
concentration able to induce neurotoxicity ([12]; 100% AO): 80 µM

C[C@]12N[C@H](Cc3ccccc31)c1ccccc12 [MK801, reference compound]
protection from neuronal cell death (morphology) [9]: efficient protection from neuronal cell death

O=C(O)CCCC[C@@H]1CCSS1 (racemic) [lipoic acid, reference compound]
neuroprotective capacity ([8]; known neuroprotectants): minimal neuroprotective capacity

Vitamin E [reference compound]
neuroprotective capacity ([8]; known neuroprotectants): minimal neuroprotective capacity
